According to patent US20230109801A1 (Blue Oak Pharmaceuticals, Inc., priority 2020, published 2023):
Structures can show the parent of a compound that is named as a salt.

Tested on: mice
Test: SmartCube in vivo neuropharmacological behavioral assay
Conditions: for AD: antidepressant, percent probability / AG: analgesic, percent probability / AP: antipsychotic, percent probability / AX: anxiolytic, percent probability / CE: cognitive enhancer, percent probability / HA: hallucinogenic, percent probability / MS: mood stabilizer, percent probability / PS, percent probability / SD: sedative hypnotic, percent probability / SE: side effects, percent probability / UN: uncharacterized CNS activity, percent probability / XG: anxiogenic, percent probability: SmartCube, i.p. 15 min before test, at the MED; for minimal effective dose: Mus musculus, ip, read-out: MED (minimal effective dose)
Method in brief: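 Mice dosed i.p. with compound in Pharmasolve (NMP) 15 min before automated video capture of behavior; doses e.g. 0.3–30 mg/kg. Behavioral signature compared with reference-drug classes, giving per-class probability (0–100, 0 = LOQ); MED = lowest dose with ≥50% total activity.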

[1] = dose having 50% or more total activity in SmartCube, i.p.

Compound | AD: antidepressant, percent probability | AG: analgesic, percent probability | AP: antipsychotic, percent probability | AX: anxiolytic, percent probability | CE: cognitive enhancer, percent probability | HA: hallucinogenic, percent probability | MS: mood stabilizer, percent probability | PS, percent probability | SD: sedative hypnotic, percent probability | SE: side effects, percent probability | UN: uncharacterized CNS activity, percent probability | XG: anxiogenic, percent probability | MED (minimal effective dose) [1] | minimal effective dose [1]
11-[(2E)-Pent-2-en-1-yl]-11-azatricyclo[6.2.1.0^2,7]undeca-2,4,6,9-tetraene hydrochloride [Compound 9] | + (LOQ ≤ X < 5%) | + (LOQ ≤ X < 5%) | + (LOQ ≤ X < 5%) | + (LOQ ≤ X < 5%) | + (LOQ ≤ X < 5%) | + (LOQ ≤ X < 5%) | + (LOQ ≤ X < 5%) | + (LOQ ≤ X < 5%) | + (LOQ ≤ X < 5%) | + (LOQ ≤ X < 5%) | + (LOQ ≤ X < 5%) | + (LOQ ≤ X < 5%) | + (30 mg/kg < +) | 
CC1CC2NC1c1ccccc12 (stereo not drawn) [Compound 50, 9-Methyl-11-azatricyclo[6.2.1.0^2,7]undeca-2,4,6-triene hydrochloride] | ++ (5% ≤ X < 25%) | ++ (5% ≤ X < 25%) | + (LOQ ≤ X < 5%) | + (LOQ ≤ X < 5%) | ++ (5% ≤ X < 25%) | + (LOQ ≤ X < 5%) | + (LOQ ≤ X < 5%) | + (LOQ ≤ X < 5%) | + (LOQ ≤ X < 5%) | + (LOQ ≤ X < 5%) | +++ (25% ≤ X < 50%) | + (LOQ ≤ X < 5%) |  | 10 to 30 mg/kg
CC(C)N1C2C=CC1c1cc(F)c(F)cc12 [Compound 6, 4,5-Difluoro-11-(propan-2-yl)-11-azatricyclo[6.2.1.0^2,7]undeca-2,4,6,9-tetraene hydrochloride] | ++ (5% ≤ X < 25%) | ++++ (50% ≤ X <1 00%) | + (LOQ ≤ X < 5%) | + (LOQ ≤ X < 5%) | + (LOQ ≤ X < 5%) | + (LOQ ≤ X < 5%) | + (LOQ ≤ X < 5%) | ++ (5% ≤ X < 25%) | + (LOQ ≤ X < 5%) | + (LOQ ≤ X < 5%) | + (LOQ ≤ X < 5%) | + (LOQ ≤ X < 5%) |  | > 30 mg/kg
COCC(C)N1C2CCC1c1ccccc12 (stereo not drawn) [Compound 46, 11-(1-Methoxypropan-2-yl)-11-azatricyclo[6.2.1.0^2,7]undeca-2,4,6-triene hydrochloride] | + (LOQ ≤ X < 5%) | ++ (5% ≤ X < 25%) | + (LOQ ≤ X < 5%) | + (LOQ ≤ X < 5%) | + (LOQ ≤ X < 5%) | + (LOQ ≤ X < 5%) | + (LOQ ≤ X < 5%) | + (LOQ ≤ X < 5%) | + (LOQ ≤ X < 5%) | + (LOQ ≤ X < 5%) | + (LOQ ≤ X < 5%) | + (LOQ ≤ X < 5%) |  | > 30 mg/kg
CC(C)N1C2CCC1c1c(F)ccc(F)c12 [Compound 34, 3,6-Difluoro-11-(propan-2-yl)-11-azatricyclo[6.2.1.0^2,7]undeca-2,4,6-triene hydrochloride] | + (LOQ ≤ X < 5%) | + (LOQ ≤ X < 5%) | + (LOQ ≤ X < 5%) | + (LOQ ≤ X < 5%) | + (LOQ ≤ X < 5%) | + (LOQ ≤ X < 5%) | + (LOQ ≤ X < 5%) | + (LOQ ≤ X < 5%) | + (LOQ ≤ X < 5%) | + (LOQ ≤ X < 5%) | + (LOQ ≤ X < 5%) | + (LOQ ≤ X < 5%) |  | > 30 mg/kg
CC(C)N1C2CCC1c1c(Cl)cccc12 (stereo not drawn) [Compound 14, 3-Chloro-11-(propan-2-yl)-11-azatricyclo[6.2.1.0^2,7]undeca-2,4,6-triene hydrochloride] | +++ (25% ≤ X < 50%) | ++ (5% ≤ X < 25%) | + (LOQ ≤ X < 5%) | ++ (5% ≤ X < 25%) | + (LOQ ≤ X < 5%) | + (LOQ ≤ X < 5%) | + (LOQ ≤ X < 5%) | ++ (5% ≤ X < 25%) | + (LOQ ≤ X < 5%) | + (LOQ ≤ X < 5%) | + (LOQ ≤ X < 5%) | + (LOQ ≤ X < 5%) |  | > 30 mg/kg
CC(C)N1C2CCC1c1cc(F)c(F)cc12 [Compound 8, 4,5-difluoro-11-(propan-2-yl)-11-azatricyclo[6.2.1.0^2,7]undeca-2(7),3,5-triene hydrochloride] | + (LOQ ≤ X < 5%) | ++ (5% ≤ X < 25%) | + (LOQ ≤ X < 5%) | ++ (5% ≤ X < 25%) | + (LOQ ≤ X < 5%) | + (LOQ ≤ X < 5%) | + (LOQ ≤ X < 5%) | + (LOQ ≤ X < 5%) | ++ (5% ≤ X < 25%) | ++++ (50% ≤ X <1 00%) | + (LOQ ≤ X < 5%) | + (LOQ ≤ X < 5%) |  | 10 to 30 mg/kg
CC1=CC2NC1c1ccccc12 (stereo not drawn) [Compound 61, 9-Methyl-11-azatricyclo[6.2.1.0^2,7]undeca-2,4,6,9-tetraene hydrochloride] | ++ (5% ≤ X < 25%) | ++ (5% ≤ X < 25%) | + (LOQ ≤ X < 5%) | + (LOQ ≤ X < 5%) | + (LOQ ≤ X < 5%) | + (LOQ ≤ X < 5%) | + (LOQ ≤ X < 5%) | + (LOQ ≤ X < 5%) | + (LOQ ≤ X < 5%) | + (LOQ ≤ X < 5%) | + (LOQ ≤ X < 5%) | + (LOQ ≤ X < 5%) |  | > 30 mg/kg
Fc1cc2c(cc1F)C1CCC2N1 [Compound 7, 4,5-Difluoro-11-azatricyclo[6.2.1.0^2,7]undeca-2,4,6-triene hydrochloride] | ++ (5% ≤ X < 25%) | ++ (5% ≤ X < 25%) | + (LOQ ≤ X < 5%) | +++ (25% ≤ X < 50%) | + (LOQ ≤ X < 5%) | + (LOQ ≤ X < 5%) | + (LOQ ≤ X < 5%) | + (LOQ ≤ X < 5%) | + (LOQ ≤ X < 5%) | ++ (5% ≤ X < 25%) | + (LOQ ≤ X < 5%) | + (LOQ ≤ X < 5%) |  | > 30 mg/kg
CC1C(C)C2c3ccccc3C1N2C(C)C (stereo not drawn) [Compound 49, 9,10-Dimethyl-11-(propan-2-yl)-11-azatricyclo[6.2.1.0^2,7]undeca-2,4,6-triene hydrochloride] |  |  |  |  |  |  |  |  |  |  |  |  |  | 10 to 30 mg/kg
COCC(C)N1C2C=CC1c1ccccc12 (stereo not drawn) [Compound 57, 11-(1-Methoxypropan-2-yl)-11-azatricyclo[6.2.1.0^2,7]undeca-2,4,6,9-tetraene hydrochloride] | ++ (5% ≤ X < 25%) | + (LOQ ≤ X < 5%) | + (LOQ ≤ X < 5%) | + (LOQ ≤ X < 5%) | + (LOQ ≤ X < 5%) | + (LOQ ≤ X < 5%) | + (LOQ ≤ X < 5%) | + (LOQ ≤ X < 5%) | + (LOQ ≤ X < 5%) | + (LOQ ≤ X < 5%) | + (LOQ ≤ X < 5%) | + (LOQ ≤ X < 5%) |  | > 30 mg/kg
CC(C)N1C2C=CC1c1c(Cl)cccc12 (stereo not drawn) [Compound 12, 3-Chloro-11-(propan-2-yl)-11-azatricyclo[6.2.1.0^2,7]undeca-2,4,6,9-tetraene hydrochloride] | + (LOQ ≤ X < 5%) | + (LOQ ≤ X < 5%) | + (LOQ ≤ X < 5%) | +++ (25% ≤ X < 50%) | + (LOQ ≤ X < 5%) | + (LOQ ≤ X < 5%) | + (LOQ ≤ X < 5%) | ++ (5% ≤ X < 25%) | + (LOQ ≤ X < 5%) | + (LOQ ≤ X < 5%) | + (LOQ ≤ X < 5%) | + (LOQ ≤ X < 5%) |  | > 30 mg/kg
